The source of these data is US8648112B2, “Therapeutic uses of urolithins” (The Regents of the University of California, priority 2006, dated 2014).

Series [1] has as its system DU145 cells. Description: In vitro proliferation (tritiated thymidine uptake), DU145. In kind it is cell-based. The conditions noted are these: read-out: IC50 on growth of human prostate cancer cells. The source says: (§1) DU145 and LNCaP cells (ATCC, Rockville, Md.), 22Rv1 cells (gift from Pinchas Cohen), and LNCAP-AR cells (gift from Charles Sawyers) were maintained below passage 20 and used in experiments during the linear phase of growth as previously described (Seeram et al. J Nutr Biochem. 16 (2005), p. 360). EA was purchased from Sigma-Aldrich (St. Louis, Mo.). UA (3,8-dihydroxy-6H-benzo[b,d]chromen-6-one), methylated UA and dimethylated UA were synthesized in our laboratory as previously described (Ghosal et al. J Chem Res Synop. 11 (1989), p. 350). Compounds were dissolved in dimethylsulfoxide (DMSO) then added to media to achieve the final desired test concentration with a final DMSO concentration not exceeding 0.1%. Proliferation was determined by tritiated thymidine uptake as previously described. All assays were performed in triplicate.
(§2) For the cell proliferation assays, data are expressed as a percentage of untreated cells (i.e. treatment value-blank/vehicle value-blank), mean±SE for at least three separate experiments. Data were analyzed by either student's t-test or one-way ANOVA followed by Dunnett's Multiple Range test (α=0.05) with Graph Pad Prism 3.0 (Graph Pad Software Inc.) as appropriate.

Series [2] deals with 22Rv1 cells. Put plainly: In vitro proliferation (tritiated thymidine uptake), 22RV1. Type of series: cell-based. The conditions noted are these: mean ± SE, read-out: IC50 on growth of human prostate cancer cells.
Source text: as §1, §2

Series [3] concerns LNCaP cells. Put plainly: In vitro proliferation (tritiated thymidine uptake), LNCaP. In kind it is cell-based. The conditions noted are these: mean ± SE, read-out: IC50 on growth of human prostate cancer cells.
Source text: as §1, §2

In series [4] the test system is Hi-Myc prostate cancer cell line. Description: Antiproliferative cell assay (CellTiter-Glo), Hi-Myc. In kind it is cell-based. The conditions noted are these: Hi-Myc (mouse), 48 h exposure, read-out: IC50 against prostate cancer cell line HiMyc. The protocol: (§3) Cell Culture Materials. The 22Rv1, DU145, LNCaP and PC3 prostate cancer cell lines were obtained from American Type Culture Collection (ATCC, Rockville, Md.). The LNCaP-AR and Hi-Myc cell lines were a kind donation by Dr. C. Sawyers (David Geffen School of Medicine, UCLA, Los Angeles, Calif.). DU145, 22Rv1, LNCaP, LNCaP-AR, and PC3 cells were grown in RPMI 1640; Hi-Myc cells were grown in Isecove's Modified Dulbecco's Medium. All media contained 10% fetal bovine serum (FBS) in the presence of 100 U/mL penicillin and 0.1 g/L streptomycin. RWPE-1 prostate cells were grown in Defined Keratinocyte Serum Free Medium (DKSFM) containing epidermal growth factor (EGF), insulin and fibroblast growth factor (FGF). Cells were incubated at 37° C. with 95% air and 5% CO2. All cells were maintained below passage 20 and used in experiments during the linear phase of growth.
(§4) Proliferation was measured utilizing the CellTiter-Glo® Luminescent Cell Viability Assay (Technical Bulletin #288, Promega Corp., Madison, Wis.). When added to cells, the assay reagent produces luminescence in the presence of ATP from viable cells. Cells were plated in 96-well plates at a density of 10,000 cells/well and incubated for 24 hours. Test samples were solubilized in DMSO by sonication, filter sterilized and diluted with media to the desired treatment concentration. Cells were treated with 100 μLcontrol media, vehicle control (DMSO<0.2% of total) or test samples and incubated for 48 h drug exposure duration at 6.25, 12.5, 25, 50 and 100 μg/mL concentrations. At the end of 48 h, plates were equilibrated at room temperature for 30 min; 100 μL of the assay reagent was added to each well and cell-lysis was induced on an orbital shaker for 2 min. Plates were incubated at room temperature for 10 min to stabilize the luminescence signal and results were read on an Orion Microplate Luminometer (Bertholds Detection Systems, Pforzheim, Germany). All plates had control wells containing medium without cells to obtain a value for background luminescence. Data are expressed as percentage of untreated cells (i.e. treatment value-blank/vehicle value-blank), mean±SE for three replications.
Background: Cellular ATP, detected with luciferase, serves as a proxy for viable cell number.

In series [5] the test system is 22Rv1 prostate cancer cell line. Put plainly: Antiproliferative cell assay (CellTiter-Glo), 22Rv1. In kind it is cell-based, human. As to conditions: 48 h exposure, read-out: IC50 against prostate cancer cell line 22 Rv1. As for the experimental part: as §3, §4
Series [6] concerns LNCaP-AR prostate cancer cell line. Description: Antiproliferative cell assay (CellTiter-Glo), LNCaP-AR. The conditions noted are these: 48 h exposure, read-out: IC50 against prostate cancer cell line LNCap-AR. Type of series: cell-based, human. The protocol: as §3, §4
The subject of series [7] is PC3 prostate cancer cell line. Description: Antiproliferative cell assay (CellTiter-Glo), PC3. Type of series: cell-based, human. As to conditions: 48 h exposure, read-out: IC50 against prostate cancer cell line PC3. The protocol:
as §3, §4

Series [8] has as its system LNCaP prostate cancer cell line. Put plainly: Antiproliferative cell assay (CellTiter-Glo), LNCaP. In kind it is cell-based, human. The conditions noted are these: 48 h exposure, read-out: IC50 against prostate cancer cell line LNCaP. As for the experimental part: as §3, §4
Series [9] has as its system DU145 prostate cancer cell line. Description: Antiproliferative cell assay (CellTiter-Glo), DU145. In kind it is cell-based, human. The conditions noted are these: read-out: IC50 against prostate cancer cell line DU145. As for the experimental part: as §3, §4
In series [10] the test system is human colon cancer cell line HCT-116. Put plainly: Antiproliferative activity against colon cancer cells (CellTiter-Glo). The conditions noted are these: 100 μg/mL, 48 hrs. Type of series: cell-based. As for the experimental part: (§5) EA and EA-metabolites (gallic and gallagic acids, urolithin B and methylated-urolithin A) were evaluated for antiproliferative activity against the human colon cancer cell line HCT-116. The cells were grown to a concentration of 10,000 cells per well in a 96 well format; and were then resuspended in medium containing vehicle control or the indicated compound: Ellagic acid, urolithin A, methyl urolithin A, or urolithin B, at a concentration of 100 μg/mL. The cells were incubated for 48 hrs, and the viability assayed by the CellTiter-Glo® Luminescent Cell Viability Assay (Technical Bulletin #288, Promega Corp., Madison, Wis.).

The test system of series [11] is human pancreatic cancer cell line BXPC-3. Description: Antiproliferative activity against pancreatic cancer cells (CellTiter-Glo), BXPC-3. Type of series: cell-based. As to conditions: 100 μg/mL, 48 hrs. As for the experimental part:
as §5, with “pancreatic” for “colon”, “lines ASPC-1 and BXPC-3.” for “line HCT-116.”, “well;” for “well in a 96 well format;”, “containing the” for “containing”, “byCellTiter-Glo®” for “by the CellTiter-Glo®”

Series [12] deals with human pancreatic cancer cell line ASPC-1. Put plainly: Antiproliferative activity against pancreatic cancer cells (CellTiter-Glo), ASPC-1. The conditions noted are these: 100 μg/mL, 48 hrs. In kind it is cell-based. As for the experimental part: as §5, with “pancreatic” for “colon”, “lines ASPC-1 and BXPC-3.” for “line HCT-116.”, “well;” for “well in a 96 well format;”, “containing the” for “containing”, “byCellTiter-Glo®” for “by the CellTiter-Glo®”

The subject of series [13] is LNCaP-AR cells. Put plainly: In vitro proliferation (tritiated thymidine uptake), LNCaP-AR. In kind it is cell-based. As to conditions: mean ± SE, read-out: IC50 on growth of human prostate cancer cells.
Source text: as §1, §2

The nature of series [14]: Tissue disposition study after UA administration. Type of series: in vivo, C57/B6 mice. The conditions noted are these: for UA and UA-conjugate levels in plasma at 24 h / UA and UA-conjugate levels in tissues at 24 h: below detectable limit. The protocol: Pomegranate extract (PE) derived from the skin of pomegranate fruit (Punica granatum L., Paramount Farms, Lost Hills, Calif.) was standardized to 37% ETs (as punicalagins) and 3.5% free EA as reported (Seeram et al. Sep Purific Tech. 41 (2005), p. 49). PE was administered to animals in doses based on the amount of ETs in a single serving of pomegranate juice (240 ml of single strength juice, 80 mg of ETs). The equivalent dose that would be administered to a 70 kg human was calculated for a mouse of 25 g body weight to be 0.03 mg ETs. Ten times (10×) this dose was used in the animal studies (0.8 mg PE per dose per animal) to enhance our ability to detect phytochemical distribution. For studies administering UA, doses were calculated assuming complete conversion of ETs to UA. […] Both PE and UA were suspended in 50 μL PBS or 10% aqueous glucose solution for intraperitoneal or oral administration, respectively.
Male C57/B6 mice (n=156 mice, retired breeders, 7 months old, 25-30 g) from Charles River laboratories (Wilmington, Mass.) were fed AlN 93G diets and water ad libitum, and fasted 6 h prior to dosing. Mice were dosed orally or intraperitoneally with either PE (0.8 mg/mouse/dose; n=72), UA (0.3 mg/mouse/dose; n=72) or vehicle control (50 μL; n=12 mice). Blood samples were collected at 0.5, 1, 2, 4, 6 and 24 h after dosing and prostate, liver, kidney, lung, colon, intestine and brain tissues were collected and stored at −80° C. Harvested tissue (200 mg) was homogenized in methanol with 0.1% acetic acid (1 mL) and centrifuged at 3000×g for 10 min. The supernatant was dried on a SpeedVac then reconstituted with 200 μL of the HPLC mobile phase for a final injection volume of 20 μL. Xenograft tissue homogenates required acid hydrolysis prior to chromatography as reported (Gu et al. J Agric Food Chem. 53 (2005), p. 6858). HPLC-UV and HPLC-MS/MS analyses were carried out on a Waters Alliance 2690 system (Waters Corp., Milford, Mass.) an LCQ Classic Finnigan system (ThermoFinnigan, San Jose, Calif.), respectively, as previously described (Seeram et al. Clin Chim Acta. 348 (2004), p. 63). Linear calibration curves were constructed using a spiked internal standard method with EA or UA using plasma or liver tissues collected from control mice as described previously (Seeram et al. Clin Chim Acta. 348 (2004), p. 63). Accuracy values ranged from 91-108% for the quality control samples containing the EA or UA standard.

Where [15] appears, read: Homo sapiens, DU-145, 48 h exposure.
Where [16] appears, read: UA 0.3 mg/mouse/dose intraperitoneal.

Like-named read-outs stand apart in the source and are kept apart here.

As to `COc1ccc2c(c1)oc(=O)c1cc(OC)ccc12` [dmUA], the IC50 (in general, the concentration that inhibits the measured activity by half) stood at 70.7 ± 13 µM in series [1] (mean ± SE), 85 ± 8.6 µM in series [2] and 71.4 ± 13.5 µM in series [3].
On to `O=C(O)c1cc(O)c(O)c(O)c1-c1c(O)c(O)c2oc(=O)c3c(-c4c(C(=O)O)cc(O)c(O)c4O)c(O)c(O)c4oc(=O)c1c2c43` [Gallagic acid], for which the IC50 in [4] was found to be 82.7 µM; in series [5], 166 µM; in [6], 82.4 µM; in series [7] it was 83.6 µM; in [8], 71.4 µM; in series [9] (48 h exposure), 198 µM.
`COc1ccc2c(c1)c(=O)oc1cc(O)ccc12` [8-methyl-Urolithin A, 3-hydroxy-8-methoxyl-6H-dibenzo[b,d]pyran-6-one]: the “anti-proliferative activity, rank order” value in series [10] is “urolithin A is the most active, then ellagic acid, urolithin B and methyl urolithin A”; in series [11] it was “urolithin A is the most active, then ellagic acid, urolithin B and methyl urolithin A”; in series [12] it was “urolithin A is the most active, then ellagic acid, urolithin B and methyl urolithin A”. In addition, the IC50 in series [4] is 586 µM; in series [5] (Homo sapiens, 22Rv1, 48 h) it was 127 µM; in [6] (Homo sapiens), 151 µM; in [7] (Homo sapiens), 526 µM; in series [8] (Homo sapiens) it was 206 µM; in series [9] (setting [15]), 466 µM.
On to `O=c1oc2c(O)c(O)cc3c(=O)oc4c(O)c(O)cc1c4c23` [Ellagic acid, reference compound], for which the “anti-proliferative activity, rank order” value in series [10] was “urolithin A is the most active, then ellagic acid, urolithin B and methyl urolithin A”; in series [11] it was “urolithin A is the most active, then ellagic acid, urolithin B and methyl urolithin A”; in series [12] it was “urolithin A is the most active, then ellagic acid, urolithin B and methyl urolithin A”. The IC50 in series [4] is 1.7 µM; in series [5] (Homo sapiens, 22Rv1, 48 h) it was 41.7 µM; in series [6] (Homo sapiens), 82.6 µM; in [7] (Homo sapiens), 83.6 µM; in [1] (Homo sapiens, DU-145, mean ± SE), 74.3 ± 5.2 µM; in series [8] (Homo sapiens) it was 20.5 µM. The IC50 was 109 ± 16.6 µM in series [2] (Homo sapiens), 96 µM in [9] (setting [15]), 62.4 ± 4.2 µM in [3] (Homo sapiens) and 78.7 ± 3.2 µM in series [13] (Homo sapiens).
As to `O=c1oc2cc(O)ccc2c2ccc(O)cc12` [UA, 3,8-dihydroxy-6H-benzo[b,d]chromen-6-one], the “anti-proliferative activity, rank order” value in series [10], in series [11] and in series [12] was “most active” in each case. The “UA and UA-conjugate levels in plasma at 24 h” value in series [14] (setting [16]) and in [14] (UA 0.3 mg/mouse/dose oral) was under 3 ng/mL throughout. The “UA and UA-conjugate levels in tissues at 24 h” value in [14] (setting [16]) and in [14] (UA 0.3 mg/mouse/dose oral) was under 5 ng/g in each case. In series [14] (UA intraperitoneally), the “time of peak concentration in prostate, colon and intestine” value was determined as 2 h. For the same compound, the tissue uptake result in series [14] (UA orally, prostate followed by small intestine and colon) is listed as “highest concentrations in the prostate gland”. Also, the 50% inhibitory concentration (IC50) came to 49.8 ± 3.9 µM in [1] (mean ± SE), 47.8 ± 3.2 µM in series [2], 31.3 ± 0.5 µM in series [3] and 43.3 ± 2.8 µM in [13].
For the compound `O=C(O)c1cc(O)c(O)c(O)c1` [Gallic acid], the IC50 in [4] is 73.5 µM; in series [5], 18.5 µM; in series [5] (Homo sapiens, 22Rv1, 48 h) it was 18.6 µM; in [6] (Homo sapiens) it was 29.2 µM; in series [7] (Homo sapiens), 111 µM; in series [8] (Homo sapiens), 32.3 µM. Besides, the IC50 in series [9] (setting [15]) came out at 29.4 µM.
